Data published in PMC12067444, “Synthesis and Pharmacological Characterization of Novel Peripheral Cannabinoid-1 Receptor Blockers Based on a Tricyclic Scaffold” (Journal of Medicinal Chemistry, 2025).

Columns and labels:
P-gp (MDR1-MDCKII cells) = P-gp (MDR1-MDCKII cells) (Homo sapiens, UniProt P08183); test: Bidirectional permeability in MDR1-MDCKII cells with and without GF120918; details: for Rank Papp: MDR1-MDCKII permeability rank
Method: (§1) MDR1-MDCKII cells were seeded onto […] (PET) in a 96-well insert system. Test and reference compounds were administered to the apical (A-to-B) and basolateral (B-to-A) sides of the cell monolayer. Permeation of the compounds in both directions was assessed, with and without a P-glycoprotein (P-gp) inhibitor (GF120918). […] After a 2.5-h incubation period, each compound’s permeability and efflux ratio were calculated as described in the SI. […]
(§2) Bidirectional permeability assessment in MDR1-MDCK cells. Test and reference compounds were quantified using LC -MS/MS ana lysis based on th e peak ar ea r atio of analyte to internal standard (IS). T he apparent permeability coefficient (Papp) in cm/s was computed using the equation: Pa pp = (dCr/d t ) × V r / ( A × C 0), where dCr/ d t […]
(§3) represents the cumulative concentration of the compound in the receiver chamber over time (µM/s), Vr is the solution volume in the receiver chamber (0.075 mL on the apical side, 0.25 mL on the basolateral side), A is the surface area for transport (0.0804 cm2 f or the monolayer ar ea), and C0 is the initial concentration in the donor chamber ( µM) .
(§4) The efflux ratio was determined using the equation Efflux Ratio = P a pp ( B:
(§5) A ) / Pa pp (A: B) . […]
(§6) Additionally, the percent of lucifer yellow in the basolateral well was calculated using the equation:
(§7) Lucif er yellow = VV bbbbbbbbbbbbbbbbbbbb ×RR FFFF bbbbbbbbbbbbbbbbbbbb ×100 VV bbaaaaaa bbbb ×RRRRRR bbaaaaaa bbbb+VV bbbbbbbbbbbbbbbbbbbb ×RRFFFF bbbbbbbbbbbbbbbbbbbb wher e RFUApical and RFUBasolateral demote the r elative f luor escence unit values of lucif er yellow in the apical and basolateral wells, respectively, and VApical and VBasolateral represent the volumes of apical and basolateral wells (0.075 mL and 0.25 mL, r espectively) . T he % Lucif er Yellow should be less than 2, indicating minimal leakage. […]

P-gp (MDR1) = P-gp (MDR1) (Homo sapiens, UniProt P08183); test: as above; details: dog; for Papp A→B at 2.5 h: MDCK-MDR1; for recovery at 2.5 h: MDCK-MDR1, Mean recovery % A to B, without GF120918
Method: as §1, §2, §3, §4, §5, §6, §7

HepG2 cells = test: Cell viability assay (CellTiter Glo); format: cell-based; details: Homo sapiens, 72 h, read-out: cell viability relative IC50
Method: Cell viability assay. To assess the cell viability, which indicates the toxicity of the novel compounds, a total of 3,000 HepG2 cells were seeded into a 384-well plate. The compounds were then dispensed onto the cell plate using a Tecan D300e digital dispenser. Following compound addition, 35 μL CellTiter Glo reagent was added to all wells of the assay plate, and the plate was mixed for 30 sec on an or bital shaker to lyse cells. Subsequently, the plate was incubated at room temperature for 10 minutes. The luminescence signal was measured using a 384-well plate reader (EnVision). The obtained data were analyzed using XL-fit software (ID Business Solutions Ltd., Software version: XL fit 5. 5. 0. 5). The percentage of inhibition was calculated using the […]
Inhibition (%) = (1-Sample / ZPE) ×100
Sample represents the test compound's luminesc e nce signal, and ZPE represents the luminescence signal f r om the zer o-percent enzyme control.

P-gp (MDR1), sequence (P08183 whole entry): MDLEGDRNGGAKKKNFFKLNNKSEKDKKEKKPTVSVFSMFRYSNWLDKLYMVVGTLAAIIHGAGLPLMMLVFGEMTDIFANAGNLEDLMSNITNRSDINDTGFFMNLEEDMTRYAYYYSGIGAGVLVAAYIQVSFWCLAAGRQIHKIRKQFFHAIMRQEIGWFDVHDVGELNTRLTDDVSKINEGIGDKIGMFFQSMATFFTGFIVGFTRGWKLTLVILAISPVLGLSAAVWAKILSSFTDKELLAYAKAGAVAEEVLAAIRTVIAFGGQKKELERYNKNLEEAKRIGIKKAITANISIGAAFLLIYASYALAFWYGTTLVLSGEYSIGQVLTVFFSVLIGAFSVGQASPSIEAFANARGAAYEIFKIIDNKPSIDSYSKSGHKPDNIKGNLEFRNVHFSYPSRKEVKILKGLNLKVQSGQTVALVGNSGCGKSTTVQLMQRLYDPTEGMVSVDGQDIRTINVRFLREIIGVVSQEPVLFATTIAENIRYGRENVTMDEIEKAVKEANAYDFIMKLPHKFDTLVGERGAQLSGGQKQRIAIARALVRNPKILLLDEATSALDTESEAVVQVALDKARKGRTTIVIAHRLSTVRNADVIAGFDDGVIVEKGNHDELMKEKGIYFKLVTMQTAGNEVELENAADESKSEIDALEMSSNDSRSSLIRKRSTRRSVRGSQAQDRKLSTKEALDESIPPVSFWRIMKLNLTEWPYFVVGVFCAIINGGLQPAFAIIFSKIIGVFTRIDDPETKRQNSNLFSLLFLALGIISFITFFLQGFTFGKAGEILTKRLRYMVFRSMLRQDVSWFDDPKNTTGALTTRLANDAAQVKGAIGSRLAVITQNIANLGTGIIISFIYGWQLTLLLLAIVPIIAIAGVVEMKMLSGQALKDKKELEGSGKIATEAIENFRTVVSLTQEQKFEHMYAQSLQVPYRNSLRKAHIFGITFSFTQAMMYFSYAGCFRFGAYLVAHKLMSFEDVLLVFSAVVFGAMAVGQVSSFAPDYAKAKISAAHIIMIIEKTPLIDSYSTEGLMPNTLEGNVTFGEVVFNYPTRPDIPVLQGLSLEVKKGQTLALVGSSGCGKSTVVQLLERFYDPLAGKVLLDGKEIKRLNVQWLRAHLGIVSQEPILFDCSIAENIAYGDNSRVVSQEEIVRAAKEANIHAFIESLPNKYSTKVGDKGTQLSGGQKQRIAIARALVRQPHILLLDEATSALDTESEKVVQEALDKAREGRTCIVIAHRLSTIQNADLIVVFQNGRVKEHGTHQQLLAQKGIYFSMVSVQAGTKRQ
P-gp (MDR1-MDCKII cells), sequence (P08183 whole entry): as above

Structure (SMILES) | P-gp substrate (P-gp (MDR1-MDCKII cells); MDR1-MDCKII cells) | Rank Papp (P-gp (MDR1-MDCKII cells)) | Mean Papp B to A (P-gp (MDR1-MDCKII cells); without GF120918) | Papp A→B at 2.5 h (P-gp (MDR1)) | recovery at 2.5 h (P-gp (MDR1)) | IC50 (HepG2 cells)
C[C@H]1O[C@@H](O[C@H]2[C@@H](O)C[C@H](O[C@H]3[C@@H](O)C[C@H](O[C@H]4CC[C@@]5(C)[C@H](CC[C@@H]6[C@@H]5C[C@@H](O)[C@]5(C)[C@@H](C7=CC(=O)OC7)CC[C@]65O)C4)O[C@@H]3C)O[C@@H]2C)C[C@H](O)[C@@H]1O [Digoxin, reference compound] | Ye s | Low | 10.88 10 -6 cm/s |  |  | 
COCCc1ccc(OCC(O)CNC(C)C)cc1 (stereo not shown) [Metoprolol, reference compound] |  | Hi gh |  | 28.7 ×10⁻⁶ cm/s | 107% | 
CC(C)(C)NCC(O)COc1cccc2c1CC(O)C(O)C2 (stereo not shown) [Nadolol, reference compound] |  | Low |  | 0.42 ×10⁻⁶ cm/s | 102% | 
CN[C@@H]1C[C@H]2O[C@@](C)([C@@H]1OC)n1c3ccccc3c3c4c(c5c6ccccc6n2c5c31)C(=O)NC4 [Staurosporine, reference compound] |  |  |  |  |  | 60 nM
